Patent publication US11850233B2, “Reduced adaptive microbial resistance treatment for flesh eating disease (necrotizing fasciitis)” (priority 2019, dated 2023)
Entries after “also recorded” stand apart in the source; their conditions may differ. Where a name gives a salt, the structure may show the parent alone. Read-outs that look alike come from different tables or passages of the source.

How the values were obtained:
E. coli (BL21) bacteria [1] = assay: In vitro inhibition of E. coli (BL21) growth on LB agar plates, dark or irradiated; format: cell-based
Source text: E. coli (BL21) bacteria was used as a model prokaryote to determine the efficacy of the inventive treatment composition to kill bacteria. The effect of inventive composition as well as each individual component of the composition were all tested to determine the effect each on the growth of E. coli bacteria. The procedure described in Herschmann, R. J. et al (2019) “Effect of toxic metal ions on photosensitized singlet oxygen generation for photodegradation of polyaromatic hydrocarbon derivatives and inactivation of Escherichia coli” Photochemistry and Photobiology 86, 890-894, was followed. The bacterial cultures were grown in an incubator in Luria-Broth (LB)—Lennox formulation at 28° C. with shaking at 250 rpm. Once the cells reached the beginning of their exponential growth phase (A600=0.2), one milliliter aliquots were removed and centrifuged. The resulting pellets were washed once with sterile water and then resuspended in 500.0 μL of sterile water. The resuspended bacteria were mixed with 200.0 μL of stock solutions of the components or the multifunctional was selected for testing at 0.3 ppm for all components of the composition. The experimental samples were irradiated in a Rayonet photoreactor for 10 minutes or covered and kept in the dark for 10 minutes. Controls were prepared using 200.0 μL of sterile water were also prepared with one control being irradiated and the other control being kept in the dark. All samples were then briefly vortexed to thoroughly mix samples, and 20.0 μL aliquots of each sample were evenly spread using standard techniques over individual LB agar petri dishes. The plates were inverted and incubated at 28° C. for 48 hours. Results are reported as observed effects of the composition and each component of the composition on the inhibition of the growth of E. coli on the plates.

E. coli (BL21) bacteria [2] = conditions: cited from earlier work
[3] = test system: MCF-7 breast cancer cells; assay: MTS assay of MCF-7 breast cancer cell proliferation, dark or irradiated; format: cell-based; conditions: aerobic, 0.3 ppm, after 48 hours
Procedure: For breast cancer cells experiment, a stored sample was taken and incubated for 3 to 5 minutes until room temperature. 5 mL of supplemented medium was placed in a 15 mL centrifuge tube. The contents in the cryotube were transferred into the 15 mL centrifuge tube containing the 5 mL medium. This mixture was centrifuged for 5 minutes at 1000 rpm. The supernatant was removed, and 3 mL of the medium was added to the cells and mixed thoroughly. From this mixture, 1 mL was placed into three separate culture flasks with 11 mL of medium each. These flasks were placed in a humidified atmosphere of 32° C. and 5% CO2. After incubation, cells were rinsed with PBS and aspirated. Cells were washed with trypsin, covered and placed in the incubator for five minutes. Solutions were then mixed with 4 mL of medium and subsequently transferred into a 15 mL centrifuge tube to be centrifuged for 5 minutes at 1000 rpm. The supernatant was then aspirated, and cells were re-suspended in 3-10 mL of medium. From here, 1 mL aliquots of this mixture were placed with 11 mL of medium in a new flask. Lastly, these flasks were placed in humidified atmosphere of 32° C. and 5% CO2. An aliquot of the stock solution (i.e. 9.5 mL) was removed from the stock culture and combined with an appropriate amount of regular medium (i.e. 220.5 mL). After proper mixing the stock with fresh media, 3 mL of the mixture were placed in each of the wells in a 6-well plate. Using the manufacturer's protocol, a MTS assay was performed to assess cell proliferation and toxicity of the multifunctional treatment composition. The concentrations of inventive treatment composition and its individual components were 0.3 ppm, until adjusted. The proliferation(s) of cells were compared to a control of cells alone. The growth the control was standardized as 100% growth and the cell proliferation in the presence of the treatment composition was observed and reported on the bases of percent when compared to the control. Similar procedure was followed for light experiment where samples were irradiated in a Rayonet photoreactor for 10 minutes.

[4] = Rate of DHN photooxidation under visible light irradiation (absorption at 300 nm); format: physicochemical; conditions: Zinc (II) 0.000 ppm, TMPyP 3.67×10^−7 M, DHN 1.2×10^−4 M, aerobic aqueous
Procedure: Quartz cuvettes with 1 cm path-length and 3.0 mL volume were used for all measurements.
For singlet oxygenation experiment, a 3.0 mL solution of DHN (1.2×10^−4 M) and TMPyP (3.67×10^−7 M) was prepared by mixing 36 μL of 1×10^−2 M of DHN standard solution and 1.10 μL of 1×10^−3 M of TMPyP standard solution with ultrapure water at room temperature in an open atmosphere. Singlet oxygenation of sample was conducted in a Rayonet photoreactor for approximately 10 min at 28° C. and the photooxidation of DHN was monitored by recording a decrease in UV-Vis absorption of DHN at 300 nm for 10 min in 2 min intervals.

[5] = known value of the standard, prior art; cited from earlier work
[6] = dark, aerobic, 0.3 ppm (Example 1 composition: Zn(II) 0.15 ppm + TMPyP 0.15 ppm), 10 minutes, plates after 48 hours
[7] = visible light irradiation 10 minutes, aerobic, 0.3 ppm (composition: Zn(II) 0.15 ppm + TMPyP 0.15 ppm), plates after 48 hours

meso-tetrakis(N-methyl-4-pyridyl) porphyrin with Zn metal stably bound into the core of porphyrin [ZnTMPyP]
inhibition of growth of E. coli (E. coli (BL21) bacteria [1]; [6]): almost no inhibition | inhibition of growth of E. coli (E. coli (BL21) bacteria [1]; [7]): inhibition of growth | E. coli killing / growth inhibition reported earlier (E. coli (BL21) bacteria [2]; dark conditions, tests by others or PCT/US2018/024338): not effective

C[n+]1ccc(-c2c3nc(c(-c4cc[n+](C)cc4)c4ccc([nH]4)c(-c4cc[n+](C)cc4)c4nc(c(-c5cc[n+](C)cc5)c5ccc2[nH]5)C=C4)C=C3)cc1.[Cl-].[Cl-].[Cl-].[Cl-] [TMPyP, meso-tetra(N-methyl-4-pyridyl) porphyrin tetrachloride]
inhibition of growth of E. coli bacteria (E. coli (BL21) bacteria [1]): 100% | inhibition of growth of MCF-7 breast cancer cells ([3]; dark): almost no inhibition | inhibition of growth of MCF-7 breast cancer cells ([3]; visible light irradiation): nearly complete inhibition | E. coli growth inhibition reported by others (E. coli (BL21) bacteria [2]; light, aerobic conditions, Khurana et al 2019): inhibits E. coli growth | Rate Constant, k of DHN photooxidation [4]: 0.0001601 s⁻¹

CN(C)c1ccc2nc3ccc(=[N+](C)C)cc-3sc2c1 [methylene blue]
singlet oxygen quantum yield (ϕΔ) [5]: 0.52

[Co+2] [cobalt (II)]
inhibition of growth of E. coli (E. coli (BL21) bacteria [1]): zero inhibition

[Fe+2] [Iron(II)]
inhibition of growth of E. coli (E. coli (BL21) bacteria [1]; [6]): zero inhibition | inhibition of growth of E. coli (E. coli (BL21) bacteria [1]; [7]): zero inhibition

[Mn+2] [manganese(II)]
inhibition of growth of E. coli (E. coli (BL21) bacteria [1]; [6]): zero inhibition | inhibition of growth of E. coli (E. coli (BL21) bacteria [1]; [7]): zero inhibition

[Zn+2] [Zn(II) ions, zinc (II) sulfate]
inhibition of growth of E. coli (E. coli (BL21) bacteria [1]): essentially no noticeable inhibition; also recorded: almost no inhibition | inhibition of growth of MCF-7 breast cancer cells ([3]; dark): no inhibition effect | inhibition of growth of MCF-7 breast cancer cells ([3]; visible light irradiation): little or no inhibition effect

O=C(N[C@H](CO)[C@H](O)c1ccc([N+](=O)[O-])cc1)C(Cl)Cl [chloramphenicol, Chloramphenicol]
inhibition of growth of E. coli (E. coli (BL21) bacteria [1]; [6]): Almost no inhibition

CC1(C)S[C@@H]2[C@H](NC(=O)[C@H](N)c3ccccc3)C(=O)N2[C@H]1C(=O)O [ampicillin, Ampicillin]
inhibition of growth of E. coli (E. coli (BL21) bacteria [1]; [6]): Almost no inhibition
